Measured values from PMC6572176, “Functional Glyco-Nanogels for Multivalent Interaction with Lectins” (Molecules, 2019).

Experiments:
[1] = target: T1, Erythrina cristagalli lectin (ECL) (Erythrina crista-galli, UniProt P83410); assay: ELISA-type competitive inhibition, fluorescein-labeled lectin on immobilized asialofetuin; type: binding; conditions: 10 mM HEPES, 150 mM NaCl, 0.1 mM CaCl2, pH 7.5, 1 h
T1 construct: native plant lectin, fluorescein-labeled (Vector Laboratories); dimeric
T1 sequence (P83410 1-239): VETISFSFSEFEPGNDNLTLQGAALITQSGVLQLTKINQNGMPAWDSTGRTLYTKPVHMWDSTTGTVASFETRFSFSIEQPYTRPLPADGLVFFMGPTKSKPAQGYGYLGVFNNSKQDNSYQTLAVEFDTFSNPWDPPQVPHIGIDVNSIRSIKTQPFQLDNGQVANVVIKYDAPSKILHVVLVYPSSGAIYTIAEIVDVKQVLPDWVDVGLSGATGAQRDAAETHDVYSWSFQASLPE

[2] = target: T2, Ulex europaeus agglutinin I (UEA I) (Ulex europaeus, UniProt P22972); assay: ELISA-type competitive inhibition, fluorescein-labeled lectin on immobilized porcine stomach mucin; type: binding; conditions: 10 mM HEPES, 150 mM NaCl, 0.1 mM CaCl2, pH 7.5, 1 h
T2 construct: native plant lectin, fluorescein-labeled (Vector Laboratories)
T2 sequence (P22972 1-243): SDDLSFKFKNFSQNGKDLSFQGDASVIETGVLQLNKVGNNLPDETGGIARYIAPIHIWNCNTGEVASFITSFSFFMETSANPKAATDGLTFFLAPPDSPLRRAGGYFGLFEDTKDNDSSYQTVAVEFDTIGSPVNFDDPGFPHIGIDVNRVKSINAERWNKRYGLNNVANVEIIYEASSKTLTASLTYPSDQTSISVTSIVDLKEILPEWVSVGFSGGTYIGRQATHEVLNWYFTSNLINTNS

Structure (SMILES)	IC50 [1]	IC50 [2]
OC[C@H]1O[C@@H](O[C@H]2[C@H](O)[C@@H](O)C(O)O[C@@H]2CO)[C@H](O)[C@@H](O)[C@H]1O (some centres unmarked) [lactose]	free lactose is a potent inhibitor for ECL with IC50 in the same range	
C[C@@H]1OC(O)[C@@H](O)[C@H](O)[C@@H]1O (some centres unmarked) [fucose]		The IC50 value of fucose for UEA I binding is three-times
